Results published in ChEMBL document CHEMBL4814006, “Novel amino substituted tetracyclic imidazo[4,5-b]pyridine derivatives: Design, synthesis, antiproliferative activity and DNA/RNA binding study” (Eur J Med Chem, 2021).
Activity calls are given as the source filed them. The calls are words filed in the database; no cut-off is given here.

How the values were obtained:
HCT-116 = assay: Antiproliferative activity against human HCT-116 cells assessed as inhibition of cell growth incubated for 72 hrs by MTT assay; assay type: functional, cell-based; settings: HCT-116, 72 h
MCF7 = assay: Antiproliferative activity against human MCF7 cells assessed as inhibition of cell growth incubated for 72 hrs by MTT assay; assay type: functional, cell-based; settings: MCF7, 72 h
HEK293 = assay: Cytotoxicity against human HEK293 cells assessed as inhibition of cell growth incubated for 72 hrs by MTT assay; assay type: cell-based; settings: HEK293, 72 h
NCI-H460 = assay: Antiproliferative activity against human NCI-H460 cells assessed as inhibition of cell growth incubated for 72 hrs by MTT assay; assay type: functional, cell-based; settings: NCI-H460, 72 h
Calf thymus DNA [1] = assay: Binding affinity to calf thymus DNA assessed as binding constant in sodium cacodylate buffer at pH 7 by fluorescence spectroscopy; settings: Bos taurus
Calf thymus DNA [2] = assay: Binding affinity to calf thymus DNA assessed as ratio of bound compound to polynucleotide phosphate in sodium cacodylate buffer at pH 7 by fluorescence spectroscopy based Scatchard analysis; settings: Bos taurus
[3] = test system: Poly(dG-dC)oligonucleotide; assay: Binding affinity to poly(dGdC)2 DNA (unknown origin) assessed as ratio of fluorescence intensity of compound-polynucleotide complex to fluorescence intensity of compound in sodium cacodylate buffer at pH 7 by fluorescence spectroscopy based Scatchard method; assay type: nucleic-acid assay
Quadruplex DNA [4] = assay: Binding affinity to human Tel22 G quadruplex DNA in sodium cacodylate buffer at pH 7 by CD spectroscopy; assay type: nucleic-acid assay
[5] = test system: Poly(dA-dU)oligonucleotide; assay: Binding affinity to polyA-polyU RNA (unknown origin) assessed as change in melting temperature in sodium cacodylate buffer at pH 7 at compound:polynucleotide concentration ratio of 0.3 by UV/vis spectrophotometric analysis; assay type: nucleic-acid assay
[6] = test system: Poly(dA-dT)oligonucleotide; assay: Binding affinity to poly(dAdT)2 DNA (unknown origin) assessed as binding constant in sodium cacodylate buffer at pH 7 by fluorescence spectroscopy; assay type: nucleic-acid assay
[7] = test system: Poly(dA-dU)oligonucleotide; assay: Binding affinity to polyA-polyU RNA (unknown origin) assessed as ratio of fluorescence intensity of compound-polynucleotide complex to fluorescence intensity of compound in sodium cacodylate buffer at pH 7 by fluorescence spectroscopy based Scatchard method; assay type: nucleic-acid assay
[8] = test system: Poly(dA-dU)oligonucleotide; assay: Binding affinity to polyA-polyU RNA (unknown origin) assessed as ratio of bound compound to polynucleotide phosphate in sodium cacodylate buffer at pH 7 by fluorescence spectroscopy based Scatchard method; assay type: nucleic-acid assay
[9] = test system: Poly(dG-dC)oligonucleotide; assay: Binding affinity to poly(dGdC)2 DNA (unknown origin) assessed as ratio of bound compound to polynucleotide phosphate in sodium cacodylate buffer at pH 7 by fluorescence spectroscopy based Scatchard method; assay type: nucleic-acid assay
Quadruplex DNA [10] = assay: Binding affinity to human Tel22 G quadruplex DNA assessed as change in melting temperature in sodium cacodylate buffer at pH 7 by UV/Vis spectrophotometric analysis; assay type: nucleic-acid assay
Calf thymus DNA [11] = assay: Binding affinity to calf thymus DNA assessed as ratio of fluorescence intensity of compound-polynucleotide complex to fluorescence intensity of compound in sodium cacodylate buffer at pH 7 by fluorescence spectroscopy based Scatchard method; settings: Bos taurus
Calf thymus DNA [12] = assay: Binding affinity to calf thymus DNA assessed as change in melting temperature in sodium cacodylate buffer at pH 7 at compound:polynucleotide concentration ratio of 0.3 by UV/Vis spectrophotometric analysis; assay type: nucleic-acid assay; settings: Bos taurus
[13] = test system: Poly(dA-dT)oligonucleotide; assay: Binding affinity to poly(dAdT)2 DNA (unknown origin) assessed as change in melting temperature in sodium cacodylate buffer at pH 7 at compound:polynucleotide concentration ratio of 0.3 by UV/Vis spectrophotometric analysis; assay type: nucleic-acid assay
Quadruplex DNA [14] = assay: Binding affinity to human Tel22 G quadruplex DNA assessed as binding constant in sodium cacodylate buffer at pH 7 at binding stoichiometry ratio of 1:1 by fluorescence spectroscopy; assay type: nucleic-acid assay
[15] = test system: Poly(dA-dT)oligonucleotide; assay: Binding affinity to poly(dAdT)2 DNA (unknown origin) assessed as ratio of bound compound to polynucleotide phosphate in sodium cacodylate buffer at pH 7 by fluorescence spectroscopy based Scatchard method; assay type: nucleic-acid assay
Quadruplex DNA [16] = assay: Binding affinity to human Tel22 G quadruplex DNA assessed as ratio of fluorescence intensity of compound-polynucleotide complex to fluorescence intensity of compound in sodium cacodylate buffer at pH 7 at binding stoichiometry ratio of 1:1 by fluorescence spectroscopy; assay type: nucleic-acid assay
[17] = test system: Poly(dA-dT)oligonucleotide; assay: Binding affinity to poly(dAdT)2 DNA (unknown origin) assessed as ratio of fluorescence intensity of compound-polynucleotide complex to fluorescence intensity of compound in sodium cacodylate buffer at pH 7 by fluorescence spectroscopy based Scatchard method; assay type: nucleic-acid assay
[18] = test system: Poly(dA-dU)oligonucleotide; assay: Binding affinity to polyA-polyU RNA (unknown origin) assessed as binding constant in sodium cacodylate buffer at pH 7 by fluorescence spectroscopy; assay type: nucleic-acid assay
[19] = test system: Poly(dG-dC)oligonucleotide; assay: Binding affinity to poly(dGdC)2 DNA (unknown origin) assessed as binding constant in sodium cacodylate buffer at pH 7 by fluorescence spectroscopy; assay type: nucleic-acid assay
[20] = test system: Poly(dG-dC)oligonucleotide; assay: Binding affinity to poly(dGdC)2 DNA (unknown origin) in sodium cacodylate buffer at pH 7 by CD spectroscopy; assay type: nucleic-acid assay
[21] = test system: Poly(dA-dT)oligonucleotide; assay: Binding affinity to poly(dAdT)2 DNA (unknown origin) in sodium cacodylate buffer at pH 7 by CD spectroscopy; assay type: nucleic-acid assay
[22] = test system: Poly(dA-dU)oligonucleotide; assay: Binding affinity to polyA-polyU RNA (unknown origin) in sodium cacodylate buffer at pH 7 by CD spectroscopy; assay type: nucleic-acid assay

Work on `CN(C)CCCNc1c(C#N)c2nc3cccnc3n2c2ccccc12` yielded an IC50 (HCT-116) of 0.9 µM, an IC50 (MCF7) of 2.9 µM and an IC50 (HEK293) of 1.8 µM. It also gave an IC50 (NCI-H460) of 1.4 µM.
For `N#Cc1cc2ccc(N3CCNCC3)cc2n2c1nc1cccnc12`, the IC50 (HCT-116) was 0.4 µM, the IC50 (MCF7) was 0.4 µM and the IC50 (HEK293) was 0.7 µM. It also gave an IC50 (NCI-H460) of 0.4 µM.
`N#Cc1c(N2CCCCC2)c2ccc(N3CCCCC3)cc2n2c1nc1ncccc12` gave an IC50 (HCT-116) of 1.8 µM, an IC50 (MCF7) of 3.6 µM and an IC50 (NCI-H460) of 7 µM.
`COc1cc([C@@H]2c3cc4c(cc3[C@@H](O[C@@H]3O[C@@H]5CO[C@@H](C)O[C@H]5[C@H](O)[C@H]3O)[C@H]3COC(=O)[C@H]23)OCO4)cc(OC)c1O` [ETOPOSIDE] showed an IC50 (MCF7) of 1 µM and an IC50 (NCI-H460) of 0.1 µM.
With `CC(C)CNc1c(C#N)c2nc3ncccc3n2c2ccccc12` the log Ks (Calf thymus DNA [1]) was 4.5, the IC50 (HCT-116) was 14 µM and the Ratio (Calf thymus DNA [2]) was < 0.1. For the same compound, the Ratio [3] was 0.5, the IC50 (MCF7) was 14 µM and the Activity (Quadruplex DNA [4]) was “Active”. The ΔTm [5] was 0.6 °C, the IC50 (HEK293) was > 100 µM and the log Ks [6] was 5.1. The IC50 (NCI-H460) was 17.5 µM, the Ratio [7] was 7.1 and the Ratio [8] was 0.1. For the same compound, the Ratio [9] was < 0.1, the ΔTm (Quadruplex DNA [10]) was 1.4 °C and the Ratio (Calf thymus DNA [11]) was 2.2. The ΔTm (Calf thymus DNA [12]) was 0 °C, the ΔTm [13] was 0 °C and the log Ks (Quadruplex DNA [14]) was 4.69. The Ratio [15] was < 0.1, the Ratio (Quadruplex DNA [16]) was 4.75 and the Ratio [17] was 8.3. For the same compound, the log Ks [18] was 4.7, the log Ks [19] was 5.5 and the Activity [20] was “inactive”. The Activity [21] was “Active”.
In the case of `N#Cc1c(Cl)c2ccccc2n2c1nc1cccnc12`, the IC50 (HCT-116) is reported as 3 µM, the IC50 (MCF7) is reported as 6 µM and the IC50 (NCI-H460) is reported as ≥ 100 µM.
For `CN(C)CCCNc1ccc2cc(C#N)c3nc4cccnc4n3c2c1`, the log Ks (Calf thymus DNA [1]) was 5.5, the IC50 (HCT-116) was 0.4 µM and the Ratio (Calf thymus DNA [2]) was 0.6. The Ratio [3] was 0.4, the IC50 (MCF7) was 0.7 µM and the Activity (Quadruplex DNA [4]) was “Active”. The ΔTm [5] was 9.5 °C, the IC50 (HEK293) was 0.3 µM and the log Ks [6] was 6.9. For the same compound, the IC50 (NCI-H460) was 0.4 µM, the Ratio [7] was 0.8 and the Ratio [8] was 0.1. For the same compound, the Ratio [9] was 0.2, the ΔTm (Quadruplex DNA [10]) was 1.9 °C and the Activity [22] was “Active”. It also gave a Ratio (Calf thymus DNA [11]) of 0.5, a ΔTm (Calf thymus DNA [12]) of 6.6 °C and a ΔTm [13] of 18.2 °C. For the same compound, the log Ks (Quadruplex DNA [14]) was 5.48, the Ratio [15] was 0.2 and the Ratio (Quadruplex DNA [16]) was 0.7. It also gave a Ratio [17] of 0.7, a log Ks [18] of 6.3 and a log Ks [19] of 5.8. For the same compound, the Activity [20] was “Active” and the Activity [21] was “Active”.
`N#Cc1c(Cl)c2ccc(F)cc2n2c1nc1ncccc12` was tested, and the IC50 (HCT-116) was 3.5 µM, the IC50 (MCF7) was 2 µM and the IC50 (NCI-H460) was ≥ 100 µM.
For `N#Cc1cc2ccc(F)cc2n2c1nc1cccnc12`, the IC50 (HCT-116) was 5 µM, the IC50 (MCF7) was ≥ 100 µM and the IC50 (NCI-H460) was ≥ 100 µM.
For `CC(C)CNc1ccc2c(NCC(C)C)c(C#N)c3nc4cccnc4n3c2c1`, the IC50 (HCT-116) was 3 µM, the IC50 (MCF7) was 1.8 µM and the IC50 (NCI-H460) was 5.4 µM.
Compound `N#Cc1c(N2CCNCC2)c2ccccc2n2c1nc1cccnc12` has an IC50 (HCT-116) of 3.6 µM, an IC50 (MCF7) of 4.7 µM and an IC50 (NCI-H460) of 1.8 µM.
For `N#Cc1c(N2CCCCC2)c2ccccc2n2c1nc1ncccc12`, the IC50 (HCT-116) was ≥ 100 µM, the IC50 (MCF7) was ≥ 100 µM and the IC50 (NCI-H460) was ≥ 100 µM.
Compound `CC(C)CNc1ccc2cc(C#N)c3nc4ncccc4n3c2c1` has an IC50 (HCT-116) of 3 µM, an IC50 (MCF7) of 3 µM and an IC50 (NCI-H460) of 12 µM.
`CN(C)CCCNc1c(C#N)c2nc3ncccc3n2c2ccccc12` gave an IC50 (HCT-116) of 0.8 µM, an IC50 (MCF7) of 3.2 µM and an IC50 (HEK293) of 2.6 µM. The IC50 (NCI-H460) was 2 µM.
